According to patent US9487749B2 (priority 2009, dated 2016):
“Also recorded” adds a separate entry of the source.

Columns and labels:
[1] = system: ATCC strain 8739 Escherichia coli; test: Bromcresol Purple colour change with E. coli; type: cell-based
Experimental: Bromcresol Purple is an indicator dye that turns yellow in the presence of E. coli bacteria. […] All concentrations were plated out to 10^−7 dilutions to ascertain the log reduction.
Flake OptiMSM was weighed out using a certified Mettler Toledo AG245 balance SN: 1115210833 and aliquoted for each concentration. […] Tubes were cooled to room temperature which was approximately 20° C. All tubes were then spiked with the same dilution of Escherichia coli that gave a level of colony forming units at 6.0×10^6/mL (6.8). The tubes were then incubated at 25° C. Daily observation for color change was performed during the first seven days. The tubes were mixed periodically to ensure that the OptiMSM was well equilibrated at all times. A positive and negative control was ascertained.

[2] = system: Acidophilus plus Bifidus milk microorganisms; test: Growth in Acidophilus plus Bifidus milk fortified with MSM; type: cell-based; settings: A/B milk
Source text: 31, 2013. […] The Acidophilus milk was low fat (Darigold).

Bacillus coagulans = Bacillus coagulans growth in simulated gastric acid supplemented with MSM; type: cell-based; settings: simulated gastric acid pH 1.2
E. coli = E. coli log growth in MSM supplemented Müller-Hinton media with or without NaCl; type: cell-based, Escherichia coli
Experimental: Standard Müller-Hinton media was compared to Müller-Hinton media supplemented with NaCl to the same level as the saline-based media of Example 4. […] Aliquots of each culture were taken at 24 and 48 hours, as well as 7 days.

[3] = system: White Labs Edinburgh Ale yeast; test: Fermentation efficiency in production of beer (Scotch Ale) with 0.5% MSM; type: cell-based; settings: for F.G. (Adjusted for Alc and Temp): 0.5% MSM fermentor
Source text: This positive impact includes such organisms as fungi, yeast, and bacteria. Yeast cultures are involved in the production of beer during the fermentation process to produce ethanol and carbon dioxide. […] Wort is the liquid extracted from the mashing process during the brewing of beer or whisky. Wort contains the sugars that are fermented by the brewing yeast to produce alcohol. […] This Procedure is detailed below. […] (1) glass jugs, airlocks and funnel were thoroughly cleaned and then rinsed with beer sanitizer; (2) 1000 mLs of water was boiled then 100 grams of DME was added; (3) sample was boiled for 10 minutes; […] The Treatment Starter batch was then placed in a sanitized 64 ounce glass jug using to which 1-vial of White Labs Edinburgh Ale yeast was added. The airlock was applied and the entire vessel was placed in a dark room at room temperature for 48 hours. […] (1) glass jugs, airlocks and funnel were thoroughly cleaned and then rinsed with beer sanitizer; (2) 1000 mLs of water was boiled then 100 grams of DME was added; (3) sample was boiled for 10 minutes; (4) sample was removed from heat; and (5) solution was allowed to cool to 72° F. The Treatment Starter batch was then placed in a sanitized 64 ounce glass jug using to which 1-vial of White Labs Edinburgh Ale yeast was added. The airlock was applied and the entire vessel was placed in a dark room at room temperature for 48 hours. […] Materials to prepare the mash included the following: 18 lb of American 2-Row base grain; 3 lb of Crystal Malt 40 L specialty grain; 1 lb […] specialty grain; and water. A mash tun (a vessel used in the mashing process to convert the starches in crushed grains into sugars for fermentation) and Brew kettle were cleaned with powdered brewers wash and rinsed thoroughly. The mash tun was then sanitized (San Star Brewing Sanitizer). The following grains were crushed and milled for mashing: 18 lb of American 2-Row base grain; 3 lb of Crystal Malt 40 L specialty grain; and 1 lb […] specialty grain. […] The crushed grains were then added and the solution was mixed thoroughly. The lid was attached and the solution allowed to mash for 60 minutes. […] Strike water was preheated to 168° F., added to the mash tun and mix thoroughly with grain. The mixture was allowed to incubate for 10 minutes. […] After preparing the mash, the brewing process was started. […] Equipment was cleaned thoroughly with PBW. The wort chiller and filtered air stone were sanitized with brewing sanitizer (San Star Brewing Sanitizer). […] At 30 minutes of boil, a second aliquot (0.5 ounces) of Cascade hops was added. At 40 minutes of boil, third aliquot (0.5 ounces) of Cascade hops was added as well as 2 teaspoons of […] Moss. At 50 minutes of boil, a fourth aliquot (0.5 ounces) of Cascade hops was added. […] Each fermentor was Brix tested every 24 hours for 21 days. Both fermentors were aerated for 25 minutes with sanitized filtered air stone. MSM infused yeast was pitched into treatment fermentor vessel while unaltered yeast was pitched into control fermentor vessel. Blow-off tubes were attached to both fermentors and fermentation was allowed to proceed for 21 days.

CS(C)(=O)=O [MSM, Methylsulfonylmethane]
Bromcresol Purple colour of the broth ([1]; 5-7% MSM, Day one): color change of the broth to yellow | Bromcresol Purple colour of the broth ([1]; 8% MSM, listed as order: Day one, Day three): slight clearing of color; also recorded: turning to the typical yellow color | Bromcresol Purple colour of the broth ([1]; 9% MSM, Day 7): turning to a yellow color | Bromcresol Purple colour of the broth ([1]; 10%-16% MSM, listed as order: Day 7, Day 30): No color change; also recorded: no signs of change | Log Growth of Lactobacillus acidophilus in Milk fortified with MSM ([2]; Day 7): 10.42 log | Log Growth of Lactobacillus acidophilus in Milk fortified with MSM ([2]; Day 21): 5.37 log | Log Growth of Lactobacillus acidophilus in Milk fortified with MSM ([2]; Day 28): 3.94 log | Log Growth of Lactobacillus acidophilus in Milk fortified with MSM ([2]; hour 32): 8.87 log | Log Growth of Lactobacillus acidophilus in Milk fortified with MSM ([2]; hour 48): 8.3 log | Log Growth of Lactobacillus acidophilus in Milk fortified with MSM ([2]; hour 72): 8.45 log | Log Growth of Lactobacillus acidophilus in Milk fortified with MSM ([2]; hour 80): 9.82 log | Log Growth of Bacillus coagulans average (Bacillus coagulans; 5% MSM, hour 0): 0.26 log | Log Growth of Bacillus coagulans in duplicate (Bacillus coagulans; 5% MSM, hour 3): 0 log | Log Growth of Bacillus coagulans average (Bacillus coagulans; 5% MSM, hour 3): 0 log | Log Growth of Bacillus coagulans in duplicate (Bacillus coagulans; 5% MSM, hour 6): 0 log | Log Growth of Bacillus coagulans average (Bacillus coagulans; 5% MSM, hour 6): 0 log | Log Growth of Bacillus coagulans in duplicate (Bacillus coagulans; 5% MSM, hour 9): 0 log | Log Growth of Bacillus coagulans average (Bacillus coagulans; 5% MSM, hour 9): 0 log | Log Growth of Bacillus coagulans in duplicate (Bacillus coagulans; 5% MSM, hour 12): 0 log | Log Growth of Bacillus coagulans average (Bacillus coagulans; 5% MSM, hour 12): 0 log | Log Growth of Bacillus coagulans average (Bacillus coagulans; 5% MSM, hour 15): 0.26 log | Log Growth of Bacillus coagulans in duplicate (Bacillus coagulans; 5% MSM, hour 24): 0 log | Log Growth of Bacillus coagulans average (Bacillus coagulans; 5% MSM, hour 24): 0 log | Log Growth of Bacillus coagulans in duplicate (Bacillus coagulans; 5% MSM, hour 48): 0 log | Log Growth of Bacillus coagulans average (Bacillus coagulans; 5% MSM, hour 48): 0 log | Log Growth of Bacillus coagulans in duplicate (Bacillus coagulans; […] MSM, hour 0): 0 log | Log Growth of Bacillus coagulans in duplicate (Bacillus coagulans; […] MSM, hour 3): 0 log | Log Growth of Bacillus coagulans in duplicate (Bacillus coagulans; […] MSM, hour 9): 0 log | Log Growth of Bacillus coagulans average (Bacillus coagulans; […] MSM, hour 9): 0 log | Log Growth of Bacillus coagulans in duplicate (Bacillus coagulans; […] MSM, hour 12): 0 log | Log Growth of Bacillus coagulans in duplicate (Bacillus coagulans; […] MSM, hour 15): 0 log | Log Growth of Bacillus coagulans average (Bacillus coagulans; […] MSM, hour 15): 0 log | Log Growth of Bacillus coagulans in duplicate (Bacillus coagulans; […] MSM, hour 24): 0 log | Log Growth of Bacillus coagulans average (Bacillus coagulans; […] MSM, hour 24): 0 log | Log Growth of Bacillus coagulans in duplicate (Bacillus coagulans; […] MSM, hour 48): 0 log | Log Growth of Bacillus coagulans average (Bacillus coagulans; […] MSM, hour 48): 0 log | log reduction in E. coli (E. coli; FMHS media, 12% MSM, 7 days): 3 log | reduction of E. coli growth (E. coli; MSM concentrations greater than 13%, 48 hours): 1-2 logs | Log growth of E. coli (E. coli; after 24 hours, FMH (flaked MSM, Müller-Hinton), rows 16-5% MSM): 6.2 log | log reduction from the initial inoculum (E. coli; all media, MSM concentrations greater than 13%, 24 hours): approximately 1 log | F.G. (Adjusted for Alc and Temp) ([3]; Day 1): 1.026 | F.G. (Adjusted for Alc and Temp) ([3]; Day 2): 1.018 | F.G. (Adjusted for Alc and Temp) ([3]; Day 3): 1.016 | F.G. (Adjusted for Alc and Temp) ([3]; Day 4): 1.016 | F.G. (Adjusted for Alc and Temp) ([3]; Day 5): 1.015 | F.G. (Adjusted for Alc and Temp) ([3]; Day 6): 1.015 | F.G. (Adjusted for Alc and Temp) ([3]; Day 7): 1.015 | F.G. (Adjusted for Alc and Temp) ([3]; Day 8): 1.015 | F.G. (Adjusted for Alc and Temp) ([3]; Day 9): 1.015 | F.G. (Adjusted for Alc and Temp) ([3]; Day 10): 1.015 | F.G. (Adjusted for Alc and Temp) ([3]; Day 11): 1.015 | F.G. (Adjusted for Alc and Temp) ([3]; Day 12): 1.015 | F.G. (Adjusted for Alc and Temp) ([3]; Day 13): 1.015 | F.G. (Adjusted for Alc and Temp) ([3]; Day 14): 1.015 | F.G. (Adjusted for Alc and Temp) ([3]; Day 15): 1.015 | F.G. (Adjusted for Alc and Temp) ([3]; Day 16): 1.015 | F.G. (Adjusted for Alc and Temp) ([3]; Day 17): 1.015 | F.G. (Adjusted for Alc and Temp) ([3]; Day 18): 1.015 | F.G. (Adjusted for Alc and Temp) ([3]; Day 19): 1.015 | F.G. (Adjusted for Alc and Temp) ([3]; Day 20): 1.015 | F.G. (Adjusted for Alc and Temp) ([3]; Day 21): 1.015 | time to maximum fermentation ([3]; 0.5% MSM treatment batch): 5 days | sooner time of completion ([3]; 0.5% MSM treatment batch vs control (6 days)): 17-25% | time to activity ([3]; fermentor with 0.5% MSM): 3.5 h | activity sooner than the control ([3]; fermentor with 0.5% MSM (3.5 hours compared to 9 hours)): 58% | activity sooner than the control ([3]; yeast starter with 0.5% MSM (2 hours compared to 10 hours)): 80%
